# pIC50: −log10 of the molar value.
# What was measured:
# OVCAR3 = test: Clonogenicity of ovarian cancer cells OVCAR3; assay type: cell-based; settings: 5AZA alone
# Experimental: (§1) There were 7 days of recovery between the DNMTi and PARPi treatment;
# (§2) Multiple cancer cell lines derived from leukemia, breast, ovarian, and lung were treated with low dose DAC/5-AZA (10 nM and 5 nM) for 3 days, followed by removal of the drug for 4 days to 7 days, and subsequent plating of cells in methylcellulose to follow self-renewal capability in the presence or absence of the PARP inhibitor ABT888 (500 nM).
# MCF7 = test: Clonogenicity of breast cancer cells MCF7; assay type: cell-based; settings: 5AZA alone
# Experimental: as §1, §2
# A2780 = test: Clonogenicity of ovarian cancer cells A2780; assay type: cell-based; settings: 5AZA alone
# Experimental: as §1, §2
# MDA MB231 = test: Clonogenicity of breast cancer cells MDA MB231; assay type: cell-based; settings: 5AZA alone
# Experimental: as §1, §2
# HCC1937 = test: Clonogenicity of breast cancer cells HCC1937; assay type: cell-based; settings: 5AZA alone
# Experimental: as §1, §2
# [1] = tested on: cancer cell lines derived from leukemia, breast, ovarian, and lung; test: Methylcellulose colony assay in multiple cancer cell lines; assay type: cell-based
# Experimental: as §2
# PARP = settings: treatment alone
# γH2AX foci = γH2AX foci immunofluorescence in MV411; assay type: cell-based, Human
# Experimental: Immunofluorescence: AML cells (0.2×10^6 cells) were cytospun onto glass slides for 5 min at 200 rpm in PBS 1× on a Shandon Cytospin 4. Cells were then fixed for 30 min in 4% paraformaldehyde, washed 3 times in DPBS (+CaCl2 and MgCl2, DPBS++), permeabilized for 10 min in permeabilization solution (50 mM NaCl, 3 mM MgCl2, 10 mM HEPES, 200 mM Sucrose and 0.5% Triton X-100 in PBS 1×), washed 3 times in DPBS (+CaCl2, +MgCl2) supplemented with BSA 1% (DPBS-BSA) and then blocked overnight in DPBS++ supplemented with 10% serum. After incubation with mouse monoclonal anti-γH2A.x (1:100, Upstate), rabbit polyclonal anti-RAD51 (1:100, Santa Cruz Biotechnologies, Dallas, Tex.), rabbit Poly-ADP-ribose (PAR, 1:200, Axxora, Farmingdale, N.Y.), or isotypes controls for an hour at 37° C. in DPBS-BSA, cells were washed and then incubated with Dylight 594-anti-mouse and Dylight 488-anti rabbit (1:200, KPL, Gaithersburg, Md.) for an hour at 37° C. prior to counterstaining with 4′,6 diamidino-2-phenylindole, dihydrochloride (DAPI, 0.3 μg/mL, Promega, Madison, Wis.) in mounting media (Vectashield, Vector Laboratories, Burlingame, Calif.). Slides were examined using a Nikon fluorescent microscope Eclipse 80i (100×/1.4 oil, Melville, N.Y.). Images of at least 50 cells/slide were captured using a CCD (charge-coupled device) camera and the imaging software NIS Elements (BR 3.00, Nikon).
# [2] = tested on: KASUMI-1 (AML1-ETO positive); test: Colony forming (methylcellulose clonogenic) assay in KASUMI-1; assay type: cell-based, Human; settings: ABT888 500 nM, single agent
# Experimental: Decitabine (DAC, 21.9 mM in DMSO, Sigma-Aldrich) was further diluted in water just before treatment of the cells with 5 nM, 10 nM or 20 nM of DAC. […] DAC was added every 24 hours for 72 hours with daily medium change, then the drug was washed out and cells were allowed to recover for 4 days (unless indicated otherwise) before further use. At day 7, cells were counted with trypan blue, treated with PARPi's, set in culture in 100 mm plates at a density of 0.2×10^6 cells/mL or in methylcellulose for colony forming assay as described later. At days indicated on the figures, 5- to 10×10^6 viable cells (trypan blue exclusion) were recovered, fast frozen and stored at −80° C. for further use for protein extraction. […]
# In order to study if the DAC dependent reprogramming (Tsai et al., 2012) could sensitize AML cells to PARPi's, KASUMI-1, MOLM14 and MV411 cells were first treated with increased doses of DAC (5 nM-20 nM) for three days with daily replacement of drugs and media as described previously (Tsai et al., 2012). […] Ten days later, clonogenic efficiency was measured by counting colonies with more than 40 cells and results were expressed as fold changes compared to controls (CRTL) (FIG. 2).
# PARP1 = molecular target: T1, PARP1 (Homo sapiens, UniProt P09874); test: PARP1 trapping in chromatin, Western blot of chromatin extracts of X-irradiated AML cells; assay type: cell-based; settings: MV411, ABT888 5 μM alone, 4Gy X-ray, FIG. 15E
# T1 construct: chromatin extracts from cells X-irradiated (4Gy) to induce DSBs were examined; endogenous in cells; host or cells: MV411 and MOLM14 AML cells
# T1 sequence (P09874 whole entry): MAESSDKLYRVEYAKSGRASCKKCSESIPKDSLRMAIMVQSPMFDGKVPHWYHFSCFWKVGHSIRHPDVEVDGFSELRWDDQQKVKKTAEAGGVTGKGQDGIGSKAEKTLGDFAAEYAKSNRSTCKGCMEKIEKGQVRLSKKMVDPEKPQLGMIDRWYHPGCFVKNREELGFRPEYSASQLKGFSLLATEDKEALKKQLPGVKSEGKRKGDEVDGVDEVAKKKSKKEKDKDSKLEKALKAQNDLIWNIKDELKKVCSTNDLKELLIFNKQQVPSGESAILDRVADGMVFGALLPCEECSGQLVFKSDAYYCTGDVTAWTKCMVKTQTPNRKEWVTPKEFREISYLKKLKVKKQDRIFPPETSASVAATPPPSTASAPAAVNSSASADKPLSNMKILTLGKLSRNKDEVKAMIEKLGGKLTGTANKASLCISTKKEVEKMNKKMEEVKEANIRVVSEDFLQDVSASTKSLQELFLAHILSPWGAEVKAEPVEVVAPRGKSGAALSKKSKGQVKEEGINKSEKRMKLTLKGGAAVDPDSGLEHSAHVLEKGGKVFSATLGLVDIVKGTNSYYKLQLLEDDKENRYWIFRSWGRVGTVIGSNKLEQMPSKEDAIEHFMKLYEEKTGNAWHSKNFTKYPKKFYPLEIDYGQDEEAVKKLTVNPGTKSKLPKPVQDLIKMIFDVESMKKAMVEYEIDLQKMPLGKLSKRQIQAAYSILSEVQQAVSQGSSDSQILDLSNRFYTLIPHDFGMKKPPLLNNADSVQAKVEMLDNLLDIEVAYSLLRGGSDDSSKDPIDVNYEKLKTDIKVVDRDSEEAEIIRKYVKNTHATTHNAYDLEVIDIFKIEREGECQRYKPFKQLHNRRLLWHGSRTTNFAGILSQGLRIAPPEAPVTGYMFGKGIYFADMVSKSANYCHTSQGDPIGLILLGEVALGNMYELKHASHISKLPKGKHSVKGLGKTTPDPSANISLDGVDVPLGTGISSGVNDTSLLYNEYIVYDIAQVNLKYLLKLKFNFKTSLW
# From the text: Irradiation: For irradiation (IR) studies, cells were exposed to 4Gy X-Ray radiation using a Pantak HF320 X-Ray machine (250 kV peak, 13 mA; half-value layer, 1.65 mm copper) at a dose rate of 2.4 Gy/min. After IR, cells were allowed to recover from DNA damage for 4 hrs before extraction of protein.
# Subcellular fractionation: To isolate the chromatin bound fraction (CH) and soluble nuclear fraction (NUC), a Subcellular Protein Fractionation kit (Thermo Fisher Scientific, Waltham, Mass.) was used by following the instructions of the manufacturer.
# Immunoblotting: Immunoblotting was performed following standard procedures using 5 μg of NUC and CH fractions. Proteins were loaded onto a 4%-20% SDS-PAGE gel (Bio-Rad laboratories, Hercules, Calif.), transferred on PVDF membrane (GE Healthcare Life Sciences, Pittsburgh, Pa.) and blots were washed in Tris Buffered Saline-0.1% Tween 20 (TBST) three times, blocked in TBST-5% bovine serum albumin (TBST-BSA) for an hour at least and first antibodies in TBST-BSA were applied overnight at 4° C. on shaker. […]
# [3] = tested on: MV411 (homozygote for FLT3-ITD); test: Colony forming (methylcellulose clonogenic) assay in MV411; assay type: cell-based, Human
# Experimental: (§3) Decitabine (DAC, 21.9 mM in DMSO, Sigma-Aldrich) was further diluted in water just before treatment of the cells with 5 nM, 10 nM or 20 nM of DAC. […] DAC was added every 24 hours for 72 hours with daily medium change, then the drug was washed out and cells were allowed to recover for 4 days (unless indicated otherwise) before further use. At day 7, cells were counted with trypan blue, treated with PARPi's, set in culture in 100 mm plates at a density of 0.2×10^6 cells/mL or in methylcellulose for colony forming assay as described later. At days indicated on the figures, 5- to 10×10^6 viable cells (trypan blue exclusion) were recovered, fast frozen and stored at −80° C. for further use for protein extraction.
# (§4) Colony forming assay: At Day 7 of the experiment, equal numbers of viable cells (KASUMI-1 cells, 10000 cells/dish; MV411, 5000 cells/dish; MOLM14, 1000 cells/dish; Patients #16, 2000 cells/dish, #9, #13 and #15, 5000 cells/dish, #29, 10000 cells/dish, #30, 20000 cells/dish and #34, 40000 cells/dish) were treated as described earlier and plated in triplicate in 33 mm dish on MethoCult H4435 Enriched (StemCell Technologies, Vancouver, British Columbia, Canada) for MNC, or Methylcellulose Stock Solution (R&D Systems, Minneapolis, Minn.) supplemented with culture media for cell lines according to the instructions of the manufacturer. Ten to nineteen days later, colonies were stained with 2-(4-iodophenyl)-3-(4-nitrophenyl)-5-phenlytetrazolium chloride (1 mg/mL) overnight at 37° C. and colonies containing more than 40 cells were quantified using a colony counter and Protocol3 software (Synbiosis, Frederick, Md.).
# (§5) In order to study if the DAC dependent reprogramming (Tsai et al., 2012) could sensitize AML cells to PARPi's, KASUMI-1, MOLM14 and MV411 cells were first treated with increased doses of DAC (5 nM-20 nM) for three days with daily replacement of drugs and media as described previously (Tsai et al., 2012). […]
# [4] = tested on: MOLM14 (heterozygote for FLT3-ITD); test: Colony forming (methylcellulose clonogenic) assay in MOLM14; assay type: cell-based, Human
# Experimental: as §3, §4, §5
# MV411 = test: cells; settings: Homo sapiens, MV4-11, 72 h
# Experimental: (§6) Four hours prior to evaluation, 20 μL of MTS labelling reagent ([3-(4, 5-dimethylthiazol-2-yl)-5-(3-carboxymethoxyphenyl)-2-(4-sulfophenyl)-2H-tetrazolium, MTS supplemented with phenazine methosulfate, PMS, Promega, Madison, Wis.) was added to each well. The results were quantified using a VersaMax Elisa Microplate Reader at a wavelength of 490 nm and SoftMax®Pro software (Molecular Devices, Sunnyvale, Calif.). Results (fold changes compared to CRTL) are representative of the mean±SEM of three independent experiments in triplicate.
# (§7) Four hours prior to evaluation, 20 μL of MTS labelling reagent ([3-(4,5-dimethylthiazol-2-yl)-5-(3-carboxymethoxyphenyl)-2-(4-sulfophenyl)-2H-tetrazolium, MTS supplemented with phenazine methosulfate, PMS, Promega, Madison, Wis.) was added to each well. The results were quantified using a VersaMax Elisa Microplate Reader at a wavelength of 490 nm and SoftMax®Pro software (Molecular Devices, Sunnyvale, Calif.). Results (Fold changes compared to CRTL) are representative of the mean±SEM of three independent experiments in triplicate.
# MOLM14 = test: cells; settings: Homo sapiens, MOLM-14, 72 h
# Experimental: as §6, §7
# [5] = tested on: mononuclear cells (MNC) from AML patients; test: Colony forming assay in primary cells from AML patients; assay type: cell-based, Human; settings: ABT888 500 nM alone; 3 of 6 patients (#15, #29, #16)
# normal bone marrow (NBM) = test: Colony survival of normal bone marrow; assay type: cell-based; settings: drug concentrations used; BMN 1 nM in FIG. 18
# Experimental: Colony forming assay: At Day 7 of experiment, equal numbers of viable cells (KASUMI-1 cells 10000 cells/dish; MV411 3000 cells/dish; MOLM14 1000 cells/dish; Patients #16, 2000 cells/dish, #9, #13 and #15, 5000 cells/dish, #29, 10000 cells/dish, #30, 20000 cells/dish and #34, 40000 cells/dish) were treated as described earlier and plated in triplicate in 33 mm dish on MethoCult H4435 Enriched (StemCell Technologies, Vancouver, British Columbia, Canada) for MNC, or Methylcellulose Stock Solution (R&D Systems, Minneapolis, Minn.) supplemented with culture media for cell lines according to the instructions of the manufacturer. Ten to nineteen days later, colonies were stained with 2-(4-iodophenyl)-3-(4-nitrophenyl)-5-phenlytetrazolium chloride (1 mg/mL) overnight at 37° C. and colonies containing more than 40 cells were quantified using colony counter and Protocol3 software (Synbiosis, Frederick, Md.).
# [6] = BMN673 between 10 nM and 100 nM
structure (smiles),measurement,setting,value
"Nc1ncn([C@@H]2O[C@H](CO)[C@@H](O)[C@H]2O)c(=O)n1 [5AZA, 5-azacitidine]",clonogenicity,OVCAR3,decreased
same,clonogenicity,MCF7,decreased
same,clonogenicity,A2780,decreased
same,clonogenicity,MDA MB231,decreased
same,clonogenicity,HCC1937,decreased
same,colony numbers,[1]; DAC/5-AZA (10 nM and 5 nM) for 3 days alone,significant decrease in colony numbers
same,PARP activity,PARP,decreases PARP activity
"C[C@]1(c2nc3c(C(N)=O)cccc3[nH]2)CCCN1 [ABT888, Veliparib]",γH2AX foci,"γH2AX foci; MV411, ABT888 5 μM alone",an increase in foci
same,colony number vs CRTL,[2],not significantly affected
same,PARP trapping into chromatin,PARP1,traps PARP into chromatin
same,colony number vs CRTL,"[3]; ABT888 500 nM, single agent",significant reduction of colony numbers
same,colony number vs CRTL,"[4]; ABT888 500 nM, single agent",significant reduction of colony numbers
same,pIC50,MV411,< 4.60
same,pIC50,MOLM14,< 4.60
same,responders: patients with decreased colony number,[5],50%
same,colony numbers,[1]; ABT888 500 nM alone,has an effect in some cases
same,PARP activity,PARP,decreases PARP activity
Cn1ncnc1[C@H]1c2n[nH]c(=O)c3cc(F)cc(c23)N[C@@H]1c1ccc(F)cc1 [BMN673],γH2AX foci,"γH2AX foci; MV411, BMN673 10 nM alone",an increase in foci
same,sensitivity in clonogenic assay,[3]; BMN673 1 nM,barely sensitive
same,colony formation,[3]; [6],profoundly inhibited colony formation
same,colony survival of normal bone marrow,normal bone marrow (NBM),not affected
same,sensitivity in clonogenic assay,[4]; BMN673 1 nM,cytotoxity occurring
same,colony formation,[4]; [6],profoundly inhibited colony formation
same,pIC50,MV411,5.19
same,pIC50,MOLM14,5.35

# From patent US10105382B2, “Therapy regimen and methods to sensitize cancer cells treated with epigenetic therapy to PARP inhibitors in ovarian cancer” (THE JOHNS HOPKINS UNIVERSITY, priority 2014, dated 2018)
